Experimental findings from patent US11603364B2, “Acyl hydrazone derivative compounds for treating disease” (Alterity Therapeutics Limited, priority 2020, dated 2023) are described below.

Each structure is given as a SMILES string.

This test deals with phospho-GSK-3β. In words: GSK 3b assay: Zn ionophore-enhanced phosphorylation of GSK-3β (AlphaScreen SureFire Phospho-GSK 3β (Ser9) kit) in SH-SY5Y cells. The class given is cell-based, human. Particulars: test compound 2 μM + ZnCl2 5 μM, 2 h at 37° C. The procedure:
The phosphorylation of GSK-3β is enhanced when Zn is imported into a cell by a Zn ionophore. This property was measured for the compounds of the current invention and the data presented relative to the know Zn ionophore PBT2 using the following protocol.
The human neuroblastoma SH-SY5Y cells were obtained from Cell bank Australia (Catalogue number: 94030304). SH-SY5Y cell culture was maintained in DMEM/F12+15% FBS inside an incubator at 37° C. in the presence of 5% CO2. The cells were sub-cultured once a week and the media exchanged once during the week. Cells for the assay were plated at a density of 60,000 cells/well.
Stock solutions of the samples were prepared as a 5 mM stock in DMSO and a stock solution of 1 mM ZnCl2/3 mM Glutamic acid was prepared in water. Immediately before use the compounds were diluted 1:10 with water before being added to Locke's buffer in a treatment tube. Samples were subsequently treated with either distilled water or the ZnCl2/Glutamic acid solution to yield a treatment solution which has a final concentration of the test compound at 2 μM+/−ZnCl2 at 5 μM.
The culture media was aspirated from the wells and the media replaced with the treatment solution prepared above. In addition to the relative standard (PBT2+/−ZnCl2), control wells were also included consisting of +/−ZnCl2 at 5 μM with all treatments done in triplicate. The plate was incubated at 37° C. with the treatment solution for 2 h after which time the wells were aspirated and washed with sterile PBS.
Measurement of the change of phospho-GSK-3β was determined using an AlphaScreen® SureFire® Phospho-GSK […] (Ser9) Kit with the cells being processed as per the manufacturer's instructions using an initial incubation of 2 h/24° C. and a final incubation of 16 h/24° C.
The fluorescence was measured on an Enspire plate reader. […] Representative data is presented in Table 12 using the following ranges: A<50%, B 50-<100%, C 100-<150%, D>150%.
On the technique in general: Alpha assays give light when donor and acceptor beads are brought close together.

Consider `O=C(N/N=C1\CCCc2cccnc21)c1cc(Cl)ccc1O` [Compound 11], for which the “GSK-Zn (signal as % of the positive standard PBT2+ZnCl2)” value is recorded as “C (C 100-<150%)”.

`O=C(N/N=C1\CCCc2cccnc21)c1ccccc1O` [Compound 12, (E)-N′-(6,7-dihydroquinolin-8(5H)-ylidene)-2-hydroxybenzohydrazide]: the “GSK-Zn (signal as % of the positive standard PBT2+ZnCl2)” value was “B (B 50-<100%)”.

As for `O=C(N/N=C1\CCCc2cccnc21)c1cccc(Cl)c1` [Compound 16], the “GSK-Zn (signal as % of the positive standard PBT2+ZnCl2)” value is on record as “A (A<50%)”.

Consider `COc1ccc(Cl)cc1C(=O)N/N=C1\CCCc2cccnc21` [Compound 17], for which the “GSK-Zn (signal as % of the positive standard PBT2+ZnCl2)” value is given as “A (A<50%)”.

As to `Cc1ccccc1C(=O)N/N=C1\CCCc2cccnc21` [Compound 18], the “GSK-Zn (signal as % of the positive standard PBT2+ZnCl2)” value was “B (B 50-<100%)”.

On to `O=C(N/N=C1\CCCc2cccnc21)c1ccc(C(F)(F)F)cc1` [Compound 20], for which the “GSK-Zn (signal as % of the positive standard PBT2+ZnCl2)” value is on record as “A (A<50%)”.

As to `COc1cc(C(=O)N/N=C2\CCCc3cccnc32)ccc1O` [Compound 21], the “GSK-Zn (signal as % of the positive standard PBT2+ZnCl2)” value is “A (A<50%)”.

Turning to `O=C(N/N=C1\CCCc2cccnc21)c1cc2ccccc2s1` [Compound 24], the “GSK-Zn (signal as % of the positive standard PBT2+ZnCl2)” value is reported as “A (A<50%)”.

For `O=C(N/N=C1\CCCc2cccnc21)c1cc2c(s1)-c1ccccc1OC2` [Compound 25], the “GSK-Zn (signal as % of the positive standard PBT2+ZnCl2)” value was “B (B 50-<100%)”.

Turning to `COc1ccc(C(=O)N/N=C2/c3ncccc3CCC2(C)C)cc1OC` [Compound 26], the “GSK-Zn (signal as % of the positive standard PBT2+ZnCl2)” value is reported as “A (A<50%)”.

Take `COc1ccc(C(=O)N/N=C2\CCc3cccnc32)cc1OC` [Compound 38, (E)-N′-(5H-Cyclopenta[b]pyridin-7(6H)-ylidene)-3,4-dimethoxybenzohydrazide]: the “GSK-Zn (signal as % of the positive standard PBT2+ZnCl2)” value is listed as “A (A<50%)”.

On to `Cl.O=C(N/N=C1\CCCc2cccnc21)c1ccccc1OCCN1CCCC1` [Compound 41, (E)-N′-(6,7-Dihydroquinolin-8(5H)-ylidene)-2-(2-(pyrrolidin-1-yl)ethoxy)benzohydrazide hydrochloride], for which the “GSK-Zn (signal as % of the positive standard PBT2+ZnCl2)” value is recorded as “A (A<50%)”.

Consider `CC/C(=N\NC(=O)c1snnc1C)c1ncccn1` [Compound 43, (E)-4-Methyl-N′-(1-(pyrimidin-2-yl)propylidene)-1,2,3-thiadiazole-5-carbohydrazide], for which the “GSK-Zn (signal as % of the positive standard PBT2+ZnCl2)” value is “C (C 100-<150%)”.

As for `CC/C(=N\NC(=O)c1cccc(C)c1)c1ncccn1` [Compound 44], the “GSK-Zn (signal as % of the positive standard PBT2+ZnCl2)” value is “B (B 50-<100%)”.

In the case of `CC/C(=N\NC(=O)c1cccc(OC)c1)c1ncccn1` [Compound 45], the “GSK-Zn (signal as % of the positive standard PBT2+ZnCl2)” value is “C (C 100-<150%)”.

With `CC/C(=N\NC(=O)c1cccc(C)c1O)c1ncccn1` [Compound 46], the “GSK-Zn (signal as % of the positive standard PBT2+ZnCl2)” value is reported as “C (C 100-<150%)”.

With `Cc1cccc(C(=O)N/N=C(/c2ncccn2)C(C)C)c1` [Compound 51], the “GSK-Zn (signal as % of the positive standard PBT2+ZnCl2)” value was “B (B 50-<100%)”.

For `COc1cccc(C(=O)N/N=C(\C)c2cccc(C)n2)c1` [Compound 64], the “GSK-Zn (signal as % of the positive standard PBT2+ZnCl2)” value was “B (B 50-<100%)”.

Take `C/C(=N\NC(=O)c1cccc(C)c1O)c1cccc(C)n1` [Compound 65]: the “GSK-Zn (signal as % of the positive standard PBT2+ZnCl2)” value is “B (B 50-<100%)”.

Take `C/C(=N\NC(=O)c1ccccc1Cl)c1cccc(C)n1` [Compound 67]: the “GSK-Zn (signal as % of the positive standard PBT2+ZnCl2)” value is recorded as “C (C 100-<150%)”.

Consider `C/C(=N\NC(=O)c1cc2ccccc2s1)c1cc(C)ccn1` [Compound 72], for which the “GSK-Zn (signal as % of the positive standard PBT2+ZnCl2)” value is “C (C 100-<150%)”.

With `C/C(=N\NC(=O)c1snnc1C)c1cc(C)ccn1` [Compound 73], the “GSK-Zn (signal as % of the positive standard PBT2+ZnCl2)” value is recorded as “C (C 100-<150%)”.

For the molecule `C/C(=N\NC(=O)c1ccccc1C)c1cc(C)ccn1` [Compound 74], the “GSK-Zn (signal as % of the positive standard PBT2+ZnCl2)” value is “B (B 50-<100%)”.

In the case of `C/C(=N\NC(=O)c1cc2ccccc2s1)c1cccc(C)n1` [Compound 75], the “GSK-Zn (signal as % of the positive standard PBT2+ZnCl2)” value is “C (C 100-<150%)”.

For `C/C(=N\NC(=O)c1ccccc1O)c1ccc2ccccc2n1` [Compound 76], the “GSK-Zn (signal as % of the positive standard PBT2+ZnCl2)” value is “C (C 100-<150%)”.

Turning to `COc1ccc(C(=O)N/N=C(\C)c2ccc3ccccc3n2)cc1OC` [Compound 77], the “GSK-Zn (signal as % of the positive standard PBT2+ZnCl2)” value was “C (C 100-<150%)”.

For `COc1cccc(C(=O)N/N=C(\C)c2ccc3ccccc3n2)c1` [Compound 78], the “GSK-Zn (signal as % of the positive standard PBT2+ZnCl2)” value is on record as “C (C 100-<150%)”.

For `C/C(=N\NC(=O)c1cccc(C)c1)c1ccc2ccccc2n1` [Compound 81], the “GSK-Zn (signal as % of the positive standard PBT2+ZnCl2)” value is “C (C 100-<150%)”.

With `C/C(=N\NC(=O)c1cccc(C)c1O)c1ccc2ccccc2n1` [Compound 82], the “GSK-Zn (signal as % of the positive standard PBT2+ZnCl2)” value is “C (C 100-<150%)”.

Take `COc1cc(C(=O)N/N=C(\C)c2ccc3ccccc3n2)ccc1O` [Compound 87]: the “GSK-Zn (signal as % of the positive standard PBT2+ZnCl2)” value was “C (C 100-<150%)”.

On to `C/C(=N\NC(=O)c1cc(Cl)ccc1O)c1ccc2ccccc2n1` [Compound 92], for which the “GSK-Zn (signal as % of the positive standard PBT2+ZnCl2)” value is “C (C 100-<150%)”.

As for `C/C(=N\NC(=O)c1ccccc1O)c1nc(C)cs1` [Compound 94], the “GSK-Zn (signal as % of the positive standard PBT2+ZnCl2)” value was “C (C 100-<150%)”.

In the case of `C/C(=N\NC(=O)c1cc(Cl)ccc1O)c1nc(C)cs1` [Compound 95], the “GSK-Zn (signal as % of the positive standard PBT2+ZnCl2)” value is given as “C (C 100-<150%)”.

Turning to `C/C(=N\NC(=O)c1snnc1C)c1nc(C)cs1` [Compound 100, (E)-4-Methyl-N′-(1-(4-methylthiazol-2-yl)ethylidene)-1,2,3-thiadiazole-5-carbohydrazide], the “GSK-Zn (signal as % of the positive standard PBT2+ZnCl2)” value is “C (C 100-<150%)”.

For the molecule `C/C(=N\NC(=O)c1cccc(C)c1O)c1ccc(C)s1` [Compound 103], the “GSK-Zn (signal as % of the positive standard PBT2+ZnCl2)” value is given as “B (B 50-<100%)”.

Turning to `C/C(=N\NC(=O)c1ccccc1O)c1nc2ccccc2s1` [Compound 104], the “GSK-Zn (signal as % of the positive standard PBT2+ZnCl2)” value is listed as “D (D>150%)”.

Turning to `C/C(=N\NC(=O)c1cccc(C)c1O)c1nc2ccccc2s1` [Compound 105], the “GSK-Zn (signal as % of the positive standard PBT2+ZnCl2)” value is reported as “B (B 50-<100%)”.

Turning to `Cc1cccc(C(=O)N/N=C\c2nc(C)c(C)s2)c1` [Compound 106], the “GSK-Zn (signal as % of the positive standard PBT2+ZnCl2)” value is “A (A<50%)”.

Take `O=C(N/N=C/c1nccs1)c1cc(Cl)ccc1O` [Compound 109]: the “GSK-Zn (signal as % of the positive standard PBT2+ZnCl2)” value is “B (B 50-<100%)”.

Consider `O=C(N/N=C/c1nc2ccccc2s1)c1cc(Cl)ccc1O` [Compound 115], for which the “GSK-Zn (signal as % of the positive standard PBT2+ZnCl2)” value is reported as “A (A<50%)”.

With `Cc1cccc(C(=O)N/N=C/c2nccs2)c1O` [Compound 119], the “GSK-Zn (signal as % of the positive standard PBT2+ZnCl2)” value was “A (A<50%)”.

Turning to `Cc1cccc(C(=O)N/N=C\c2cn3ccccc3n2)c1` [Compound 121], the “GSK-Zn (signal as % of the positive standard PBT2+ZnCl2)” value is listed as “A (A<50%)”.

`Cc1cccc(C(=NNC(=O)c2ccc(N(C)C)cc2)c2cccc(C)n2)n1` [Compound 123]: the “GSK-Zn (signal as % of the positive standard PBT2+ZnCl2)” value is “C (C 100-<150%)”.

`COc1ccc(C(=O)NN=C(c2cccc(C)n2)c2cccc(C)n2)cc1OC` [Compound 126]: the “GSK-Zn (signal as % of the positive standard PBT2+ZnCl2)” value is “C (C 100-<150%)”.

As to `Cc1cccc(C(=NNC(=O)c2cc(Cl)ccc2O)c2cccc(C)n2)n1` [Compound 128], the “GSK-Zn (signal as % of the positive standard PBT2+ZnCl2)” value is recorded as “D (D>150%)”.

In the case of `Cc1cccc(C(=NNC(=O)c2cccc(C)c2O)c2cccc(C)n2)n1` [Compound 129], the “GSK-Zn (signal as % of the positive standard PBT2+ZnCl2)” value is “C (C 100-<150%)”.

As for `COc1cc(C(=O)NN=C(c2cccc(C)n2)c2cccc(C)n2)ccc1O` [Compound 130, N′-(bis(6-Methylpyridin-2-yl)methylene)-4-hydroxy-3-methoxybenzohydrazide], the “GSK-Zn (signal as % of the positive standard PBT2+ZnCl2)” value was “A (A<50%)”.

For `COc1cccc(C(=O)NN=C(c2cccc(C)n2)c2cccc(C)n2)c1` [Compound 131], the “GSK-Zn (signal as % of the positive standard PBT2+ZnCl2)” value is reported as “B (B 50-<100%)”.

For the molecule `CCOc1cccc(C(=O)NN=C(c2cccc(C)n2)c2cccc(C)n2)c1` [Compound 132], the “GSK-Zn (signal as % of the positive standard PBT2+ZnCl2)” value is “C (C 100-<150%)”.

Turning to `Cc1cccc(C(=O)NN=C(c2cccc(C)n2)c2cccc(C)n2)c1` [Compound 133], the “GSK-Zn (signal as % of the positive standard PBT2+ZnCl2)” value is recorded as “C (C 100-<150%)”.

With `Cc1cccc(C(=NNC(=O)c2ccccc2F)c2cccc(C)n2)n1` [Compound 134], the “GSK-Zn (signal as % of the positive standard PBT2+ZnCl2)” value was “B (B 50-<100%)”.

`Cc1cccc(C(=NNC(=O)c2ccccn2)c2cccc(C)n2)n1` [Compound 135]: the “GSK-Zn (signal as % of the positive standard PBT2+ZnCl2)” value is given as “B (B 50-<100%)”.

In the case of `C/C(=N\NC(=O)c1cc2ccccc2s1)c1ccccn1` [Compound 146, (E)-N′-(1-(Pyridin-2-yl)ethylidene)benzo[b]thiophene-2-carbohydrazide], the “GSK-Zn (signal as % of the positive standard PBT2+ZnCl2)” value is on record as “C (C 100-<150%)”.
